Measured values from patent publication US5354747A, “2-, 3-, 4-, 5-, 6-, 7-, 8-, 9- and/or 10-substituted dibenzoxazepine and dibenzthiazepine compounds, pharmaceutical compositions and methods of use” (G. D. Searle & Co., priority 1993, dated 1994).
Structures can show the parent of a compound that is named as a salt.

Columns and labels:
[1] = test system: Charles River male albino mice; test: Writhing Assay (PBQ-induced writhing, analgesic activity); type: in vivo; settings: Mus musculus, po, Intragastric; for responders at 30 mg/kg: 25 min, 30 mg per kilogram of body weight 25 min before PBQ i.p., writhes equal to or less than one-half the control median, read-out: number of mice out of nine or ten in which a test compound produced analgesia (converted); for ED50: PBQ writhing, mice, maximum likelihood function, read-out: calculated ED50 value (dose which produced analgesia in 50% of the mice)
Source text: The Writhing Assay is one of the most widely-used experimental procedures for measuring the analgesic activity of different narcotic and nonnarcotic analgesic agents, and involves the continuous, chemically-induced pain of visceral origin to an animal, such as a mouse or rat. [Gyires et al., Arch. int. Pharmacodyn, 267, 131-140 (1984); […] al., Fed. Proc., 15, 494 (1956); Koster et al., Fed. Proc., 18, 412 (1959); and Witken et al., J. Pharmacol. exp. Ther., 133, 400-408 (1961).] Chemicals which may be used to induce this pain include phenylbenzoquinone (PBQ) and acetic acid. As a result of the chemical irritation to the animal, a characteristic stretching and writhing of the animal (dorsiflexion of the animal's back, extension of its hindlimbs and the strong contraction of its abdominal musculature) will generally occur. […] Drugs which reduce the number of writhes of the animal appear to restore the normal nociceptive threshold of the animal. Charles River male albino mice, weighing 20 to 30 grams were used in this assay. Twenty-five minutes after intragastric administration to nine or ten mice of 30 mg per kilogram of body weight of a compound of the present invention ("test compound"), […] of body weight of a 0.025% w/v solution of PBQ was injected intraperitoneally into each mouse. Ten mice which were given saline in place of a test compound of the invention were used as a control group. Five minutes later, each mouse was individually placed into a glass beaker for observation, and the number of writhes occurring during the following ten-minute period was counted. A test compound was considered to have produced analgesia in a mouse if, in accordance with the conditions set forth above, and under the test criteria employed for this assay, after the administration of 30 mg per kilogram of body weight of a compound of the present invention to the mouse, the number of writhes elicited by a mouse injected with PBQ was equal to, or less than, one-half the median number of writhes recorded for the saline-treated control group of mice that day, as described by Taber in "Predictive Value of Analgesic Assays in Mice and Rats," Advances in Biochemical Psychopharmacology, 8, 191 (1974). […] If this initial screening dose of the test compound produced analgesia in seven of nine or ten mice, then the effect of additional doses of the test compound on the writhing response was evaluated, and then the ED50 value (that dose of a compound which produced analgesia in 50% of the mice to which the compound was administered) was generally calculated. A maximum likelihood function was used to determine the ED50 value. (The slopes of the dose-response curves for all test compounds analyzed were compared as described by Tallarida and Murray, Manual of Pharmacologic Calculations, Page 11 (Springer Verlag, New York, 1981)). The results for the particular compounds of the present invention analyzed in this assay, and discussed in the examples identified below which correspond thereto, are presented in Table 1 hereinbelow. The compounds of the present invention which were tested in this assay, and for which results are presented in Table 1, correspond to the particular examples specified in Table 1. The fractions indicate the number of mice out of nine or ten in which a test compound produced analgesia, and the whole numbers are the calculated ED50 values.

[2] = test system: prostaglandin E2 -induced contractions of segments of guinea pig ileum; test: Prostaglandin (PGE) Antagonism Assay; type: cell-based; settings: dose ratio of prostaglandin E2 EC50 doses with/without test compound, initial concentration 3 micromolar
Protocol: In order to determine the effectiveness of several of the compounds of the present invention ("test compounds") as prostaglandin E2 antagonists,a prostaglandin antagonism assay was conducted, as described below, to determine the ability of these compounds to inhibit prostaglandin E2 -induced contractions of segments of guinea pig ileum. […] Male albino guinea pigs weighing 200 to 500 grams were sacrificed by cervical dislocation. The ilea were then quickly removed from the guinea pigs and placed in a modified Tyrode solution, a solution which is known to those skilled in the art, containing one-half of the usual amount of magnesium ions. Segments of ileum about 2 cm long were then cut and mounted in a 10-mL tissue bath containing the modified Tyrode solution. The solution was maintained at 37° C. and aerated with a gaseous mixture of 95% oxygen and 5% carbon dioxide. Data for a control prostaglandin E2 dose response curve plotting concentration of prostaglandin E2 versus the intensity of contractions, detected isotonically, was then obtained by experimentally adjusting the dose of the prostaglandin E2 being injected into the tissue bath, in a manner known by those of skill in the art. Solutions or suspensions containing an initial concentration (3 micromolar) of a test compound in modified Tyrode solution ("test solutions/suspensions") were then separately substituted for the control bath solution. Each test solution/suspension was then kept in constant contact with the ileum tissue, except for brief periods to drain the bath in preparation for rinsing with fresh test solution/suspension. A second prostaglandin E2 dose response curve was then generated for prostaglandin E2 in the presence of a test compound. A dose ratio (DR) of EC50 doses was then calculated from the results of each test in a manner known by those of skill in the art. A control dose response curve (DRC) is produced in isolated segments of guinea pig ileum mounted in an automated apparatus with six concentrations of prostaglandin E2. A solution or suspension of test compound is substituted for the control bathing solution and is incubated for thirty minutes. An additional prostaglandin E2 dose response curve is produced in the presence of the test compound. A dose ratio is calculated from the EC50 values obtained from duplicate replications on each concentration of the test compound. […] The results of this prostaglandin antagonism assay are presented in Table 2 below in terms of their dose ratio. The compounds of the present invention which were tested in this assay, and for which results are presented in Table 2, correspond to the particular examples specified in Table 2.

SMILES | responders at 30 mg/kg [1] | Dose Ratio [2] | ED50 [1]
Cl.O=C(N1CCN(Cc2cccs2)CC1)N1Cc2ccccc2Oc2ccc(Cl)cc21 [Example 54, 8-chloro-10,11-dihydro-10-[[4-(2-thienylmethyl)-1-piperazinyl]carbonyl]dibenz[b,f][1,4]oxazepine, monohydrochloride] | 60% | 2.4 | 
CCCN1CCN(C(=O)N2Cc3ccccc3Oc3ccc(Cl)cc32)CC1.Cl [Example 17, 8-chloro-10,11-dihydro-10-[(4-propyl-1-piperazinyl)carbonyl]dibenz[b,f][1,4]oxazepine, hydrochloride] |  | 3.1 | 5.1 mg/kg
Cl.O=C(N1CCN(Cc2ccsc2)CC1)N1Cc2ccccc2Oc2ccc(Cl)cc21 [Example 47, 8-chloro-10,11-dihydro-10-[[4-(3-thienylmethyl)-1-piperazinyl]carbonyl]dibenz[b,f][1,4]oxazepine, monohydrochloride] | 70% | 2.9 | 
O=C(N1CCN(CCc2ccccc2)CC1)N1Cc2ccccc2Oc2ccccc21 [Example 41, 10,11-dihydro-10-[[4-(2-phenylethyl)-1-piperazinyl]carbonyl]dibenz[b,f][1,4]oxazepine, monohydrochloride] | 100% | 2.6 | 
CCN1CCN(C(=O)N2Cc3ccccc3Oc3ccc(Cl)cc32)CC1.Cl [Example 19, 8-chloro-10-[(4-ethyl-1-piperazinyl)carbonyl]-10,11-dihydrodibenz[b,f][1,4]oxazepine, hydrochloride] | 22.2% | 6.0 | 
Cl.O=C(N1CCN(Cc2ccccc2)CC1)N1Cc2ccccc2Oc2ccc(Cl)cc21 [Example 7, 8-chloro-10,11-dihydro-10-[[4-(phenylmethyl)-1-piperazinyl]carbonyl]dibenz[b,f][1,4]oxazepine, monohydrochloride] |  | 5.1 | 6.8 mg/kg
Cl.O=C(N1CCC(N2CCCCC2)CC1)N1Cc2ccccc2Oc2ccc(Cl)cc21 [Example 13, 10-([1,4'-bipiperidin]-1'-ylcarbonyl)-8-chloro-10,11-dihydrodibenz[b,f][1,4]oxazepine, hydrochloride] | 90% | 1.6 | 
Cl.O=C(N1CCCNCC1)N1Cc2ccccc2Oc2ccc(Cl)cc21 [Example 61, 8-chloro-10-[(hexahydro-1H-1,4-diazepin-1-yl)carbonyl]-10,11-dihydrodibenz[b,f][1,4]oxazepine, hydrochloride] | 60% | 4.8 | 
CC(C)(C)OC(=O)N1CCN(C(=O)N2Cc3ccccc3Oc3ccc(Cl)cc32)CC1 [Example 20, 1,1-dimethylethyl 4-[(8-chlorodibenz[b,f][1,4]oxazepin-10(11H)-yl)carbonyl]-1-piperazinecarboxylate] | 40% | 8.0 | 
CCCCN1CCN(C(=O)N2Cc3ccccc3Oc3ccc(Cl)cc32)CC1.Cl [Example 9, 10-[(4-butyl-1-piperazinyl)carbonyl]-8-chloro-10,11-dihydrodibenz[b,f][1,4]oxazepine, monohydrochloride] |  | 1.4 | 9.7 mg/kg
Cl.O=C(N1CCN(Cc2ccco2)CC1)N1Cc2ccccc2Oc2ccc(Cl)cc21 [Example 65, 8-chloro-10-[[4-(2-furanylmethyl)-1-piperazinyl]carbonyl]-10,11-dihydrodibenz[b,f][1,4]oxazepine, monohydrochloride] | 40% | 8.4 | 
O=C(N1CCN2CCCCC2C1)N1Cc2ccccc2Oc2ccc(Cl)cc21 (stereo not drawn) [Example 5, 8-chloro-10,11-dihydro-10-[(octahydro-2H-pyrido[1,2,-a]pyrazin-2-yl)carbonyl]dibenz[b,f][1,4]oxazepine hydrochloride] | 40% | 2.4 | 
